Assay results: the NIST ThermoML archive (doi:10.1021/acs.jced.5b00613)

Details: Liquid, Vibrating tube method

CCCCCCCCCC [decane]
mass density [kg/m3]
Details | 100 kPa | 1000 kPa | 5000 kPa | 10000 kPa | 20000 kPa | 30000 kPa | 40000 kPa | 50000 kPa | 60000 kPa
278.15 K | 741.6 | 742.2 | 745 | 748.3 | 754.4 | 760.1 | 765.4 | 770.4 | 775.3
298.15 K | 726.7 | 727.4 | 730.5 | 734.2 | 740.9 | 747.2 | 753 | 758.4 | 763.7
323.15 K | 707.4 | 708.4 | 711.9 | 716.2 | 724 | 731.1 | 737.5 | 743.5 | 749.2
348.15 K | 687.6 | 688.6 | 692.8 | 697.7 | 706.7 | 714.6 | 721.8 | 728.4 | 734.6
373.15 K | 667.1 | 668.8 | 673.8 | 679.6 | 689.8 | 698.8 | 706.8 | 714.1 | 720.8
423.15 K | 624.8 | 627.2 | 634.5 | 642.4 | 655.8 | 667.1 | 677 | 685.9 | 693.8
463.15 K | – | 590.4 | 600.3 | 610.8 | 627.8 | 641.4 | 653.1 | 663.3 | 672.1

CCCCCCCCCCCC [dodecane]
mass density [kg/m3]
Details | 100 kPa | 1000 kPa | 5000 kPa | 10000 kPa | 20000 kPa | 30000 kPa | 40000 kPa | 50000 kPa | 60000 kPa
278.15 K | 759.2 | 760.5 | 763.1 | 766.2 | 771.9 | 777.3 | 782.3 | 787.1 | 791.7
298.15 K | 745.6 | 746.2 | 749 | 752.4 | 758.7 | 764.7 | 770.1 | 775.3 | 780.2
323.15 K | 727.2 | 728.2 | 731.4 | 735.3 | 742.6 | 749.2 | 755.2 | 760.9 | 766.3
348.15 K | 708.7 | 709.6 | 713.4 | 717.8 | 726.1 | 733.5 | 740.2 | 746.4 | 752.3
373.15 K | – | 690.8 | 695.2 | 700.4 | 709.8 | 718.1 | 725.6 | 732.5 | 738.9
423.15 K | – | 652.6 | 658.7 | 665.6 | 677.6 | 688 | 697 | 705.3 | 712.8
463.15 K | – | – | 627.9 | 636.9 | 651.8 | 664.2 | 674.8 | 684.1 | 692.6

CCCCCCCCCCCCCCCC [hexadecane]
mass density [kg/m3]
Details | 100 kPa | 1000 kPa | 5000 kPa | 10000 kPa | 20000 kPa | 30000 kPa | 40000 kPa | 50000 kPa | 60000 kPa
298.15 K | 770.5 | 771.1 | 773.6 | 776.9 | 782.6 | 788.1 | – | – | –
323.15 K | 753.1 | 753.9 | 756.8 | 760.4 | 766.9 | 772.9 | 778.5 | 783.8 | 788.7
348.15 K | 735.6 | 736.5 | 739.8 | 743.8 | 751.1 | 757.8 | 763.9 | 769.7 | 775.1
373.15 K | 717.8 | 719.4 | 723.2 | 727.7 | 735.9 | 743.4 | 750.3 | 756.5 | 762.4
423.15 K | 680.8 | 684.1 | 689.2 | 695.1 | 705.5 | 714.7 | 722.9 | 730.4 | 737.2
463.15 K | 651.6 | 654.5 | 661 | 668.5 | 681.2 | 692 | 701.4 | 709.8 | 717.5

CCCCCC [hexane]
mass density [kg/m3]
Details | 100 kPa | 1000 kPa | 5000 kPa | 10000 kPa | 20000 kPa | 30000 kPa | 40000 kPa | 50000 kPa | 60000 kPa
278.15 K | 673.3 | 673.9 | 677.6 | 681.8 | 689.6 | 696.8 | 703.2 | 709.2 | 715
298.15 K | 656.1 | 655.9 | 660.1 | 665.1 | 673.9 | 681.9 | 689 | 695.5 | 701.7
323.15 K | 631.7 | 633.1 | 638.2 | 644.2 | 654.7 | 663.9 | 671.9 | 679.3 | 686.1
348.15 K | – | 608.5 | 614.9 | 622.1 | 634.6 | 645.2 | 654.4 | 662.6 | 670.2
373.15 K | – | 582.6 | 591 | 600 | 614.8 | 627 | 637.4 | 646.6 | 654.9
423.15 K | – | 521.2 | 536.9 | 551.5 | 573.2 | 589.7 | 603.2 | 614.6 | 624.8
463.15 K | – | – | 484.2 | 508.5 | 538.9 | 559.8 | 575.9 | 589.3 | 600.7
